The source of these data is US9351982B2, “Krill oil and reacted astaxanthin composition and associated method” (U.S. Nutraceuticals, LLC, priority 2009, dated 2016).

For data set [1], the system named is C-Reactive Protein (C-RP). To be noted: cited from earlier work.
In data set [2] the test system is pro-oxidant activity of Vioxx. To be noted: in vitro; cited from earlier work.
The conditions of data set [3]: eight weeks of supplementation at 6 mg per day; cited from earlier work.
For data set [4] the following is noted: cited from earlier work.
In data set [5] the test system is lens epithelial cells. To be noted: in vitro, at umol/L concentrations; cited from earlier work.
A short description of data set [6]: Stability of carotenoids blended with krill oil, UV analysis. Format: physicochemical. From the text: Testing has determined that astaxanthin added to krill oil results in an unstable product with respect to recoverable astaxanthin by HPLC analysis. A chemical reaction most likely takes place between krill oil and at least astaxanthin in such mixtures. […] Had UV alone been used to determine product stability the decrease in recoverable astaxanthin over time would not have been observed. The test results, tables and charts of FIGS. 2-6 show the decrease in recoverable astaxanthin over time.
FIG. 2 is a chart showing data of astaxanthin at 13 days post formulation reacting with krill oil, but essentially neither lutein nor zeaxanthin. Astaxanthin is a keto-alcohol while lutein and zeaxanthin are alcohols and this can possibly make some difference. It should also be understood that the krill oil and “reacted” carotenoids, such as astaxanthin, and possibly zeaxanthin and lutein, lose their ability to be recovered over time from the mixture but can still be quantitated by ultraviolet (UV) analysis. For example, the chromophores of the carotenoids are not destroyed when the reaction takes place over time and can be used to develop a number of products useful for cardiovascular applications, joint health care applications, eye care and other diseases.
Referring now to the chart in FIG. 2, there are shown various samples and explanation. […]

Data set [7] relates to lipid peroxidation. To be noted: relative to alpha-tocopherol; in vitro and in vivo studies; cited from earlier work.
Data set [8] has as its system LDL cholesterol oxidation. To be noted: cited from earlier work.
The conditions of data set [9]: cited from earlier work. This is another data set of the same source.

As to `CC1=C(/C=C/C(C)=C/C=C/C(C)=C/C=C/C=C(C)/C=C/C=C(C)/C=C/C2=C(C)C(=O)[C@@H](O)CC2(C)C)C(C)(C)C[C@H](O)C1=O` [astaxanthin], the “decrease in C-reactive protein scores” value in [1] (4 mg for eight weeks) was 21%. Moreover, the “drop in serum C-RP levels” value in data set [1] (human subjects with high risk levels of C-RP, three months of treatment) is 43%. Besides, in data set [2], the “negation of pro-oxidant activity of Vioxx” value is reported as “negate the pro-oxidant activity of Vioxx”. In [3], the “negative effect in healthy adults” value is on record as “no negative effect”. The “potency in quenching singlet oxygen, times more potent than alpha-tocopherol” value in data set [4] (relative to alpha-tocopherol) is 550 times. The “potency in quenching singlet oxygen, times more potent than beta-carotene” value in data set [4] (relative to beta-carotene) was 11 times. Moreover, in [4] (relative to lutein), the “potency in quenching singlet oxygen, times more potent than lutein” value is on record as 27.5 times. In addition, the “suppression of UVB induced lipid per-oxidative mediated cell damage” value in data set [5] is recorded as “suppresses UVB induced lipid per-oxidative mediated cell damage”. In addition, in [6], the “UV quantification of the amount of astaxanthin added to blended product” value is ~100%. In addition, the “mean effective concentration which inhibits lipid peroxidation, times lower than that of alpha-tocopherol” value in data set [7] is 500 times. Further, the “protection of LDL cholesterol against induced in vitro oxidation” value in [8] (3.6 mg per day for two weeks) is “protects LDL cholesterol against induced in vitro oxidation”. For the same compound, in data set [8] (4 mg per day for two weeks), the “reduction of LDL cholesterol oxidation” value is 26%. Further, the “potency in scavenging oxygen free radicals, times more potent than alpha-tocopherol” value in [9] (relative to alpha-tocopherol) is on record as 14 times. The “potency in scavenging oxygen free radicals, times more potent than ascorbic acid (Vitamin C)” value in data set [9] (relative to ascorbic acid) is on record as 65 times. Moreover, the “potency in scavenging oxygen free radicals, times more potent than beta-carotene” value in data set [9] (relative to beta-carotene) was 54 times.
